Assay results reported in patent US7799819B2, “7-Amido-isoindolyl compounds and their pharmaceutical uses” (Celgene Corporation, priority 2003, dated 2010).

| melting point | SMILES |
| --- | --- |
| 176 to 178 °C | CCOc1cc([C@@H](CS(C)(=O)=O)N2Cc3c(F)ccc(NC(=O)C4CC4)c3C2=O)ccc1OC [Example 28, (1S)-Cyclopropanecarboxylic acid {2-[1-(3-ethoxy-4-methoxy-phenyl)-2-methanesulfonyl-ethyl]-7-fluoro-3-oxo-2,3-dihydro-1H-isoindol-4-yl}-amide] |
| 136 to 138 °C | CCOc1cc([C@@H](CCNO)N2Cc3cccc(NC(=O)C4CC4)c3C2=O)ccc1OC [Example 3, (1R)-Cyclopropanecarboxylic acid {2-[1-(3-ethoxy-4-methoxy-phenyl)-3-hydroxyamino-propyl]-3-oxo-2,3-dihydro-1H-isoindol-4-yl}-amide] |
| 118 to 120 °C | CCOc1cc([C@@H](CC(=O)NOC(=O)CC(C)(C)C)N2Cc3cccc(NC(=O)C4CC4)c3C2=O)ccc1OC [Example 27, (1R)-Cyclopropanecarboxylic acid {2-[2-(3,3-dimethyl-butyryloxycarbamoyl)-1-(3-ethoxy-4-methoxy-phenyl)-ethyl]-3-oxo-2,3-dihydro-1H-isoindol-4-yl}-amide] |
| 197 to 199 °C | CCOc1cc([C@@H](CS(C)(=O)=O)N2Cc3c(Cl)ccc(NC(=O)C4CC4)c3C2=O)ccc1OC [Example 18, (1S)-Cyclopropanecarboxylic acid {7-chloro-2-[1-(3-ethoxy-4-methoxy-phenyl)-2-methanesulfonyl-ethyl]-3-oxo-2,3-dihydro-1H-isoindol-4-yl}-amide] |
| 205 to 207 °C | CCOc1cc([C@@H](CS(C)(=O)=O)N2Cc3c(Cl)ccc(NC(=O)CN4CCN(C)CC4)c3C2=O)ccc1OC [Example 30, (1S)—N-{7-Chloro-2-[1-(3-ethoxy-4-methoxy-phenyl)-2-methanesulfonyl-ethyl]-3-oxo-2,3-dihydro-1H-isoindol-4-yl}-2-(4-methyl-piperazin-1-yl)-acetamide] |
| 160 to 162 °C | CCOc1cc([C@@H](CC(=O)NO)N2Cc3cccc(NC(=O)C4CC4)c3C2=O)ccc1OC [Example 9, (1R)-Cyclopropanecarboxylic acid {2-[1-(3-ethoxy-4-methoxy-phenyl)-2-hydroxycarbamoyl-ethyl]-3-oxo-2,3-dihydro-1H-isoindol-4-yl}-amide] |
| 103 to 105 °C | CCOc1cc([C@@H](CCO)N2Cc3cccc(NC(=O)C4CC4)c3C2=O)ccc1OC [Example 1, (1R)-Cyclopropanecarboxylic acid {2-[1-(3-ethoxy-4-methoxy-phenyl)-3-hydroxy-propyl]-3-oxo-2,3-dihydro-1H-isoindol-4-yl}-amide] |
| 162 to 164 °C | CCOc1cc([C@@H](CCNC(N)=O)N2Cc3cccc(NC(=O)C4CC4)c3C2=O)ccc1OC [Example 6, (1R)-Cyclopropanecarboxylic acid {2-[1-(3-ethoxy-4-methoxy-phenyl)-3-ureido-propyl]-3-oxo-2,3-dihydro-1H-isoindol-4-yl}-amide] |
| 122 to 125 °C | CCOc1cc([C@@H](CC[S+](C)[O-])N2Cc3cccc(NC(=O)C4CC4)c3C2=O)ccc1OC (stereo partly drawn) [Example 11, (3R)-Cyclopropanecarboxylic acid {2-[1-(3-ethoxy-4-methoxy-phenyl)-3-methanesulfinyl-propyl]-3-oxo-2,3-dihydro-1H-isoindol-4-yl}-amide] |
| 118 to 120 °C | CCOc1cc([C@@H](CC(=O)O)N2Cc3c(Cl)ccc(NC(=O)C4CC4)c3C2=O)ccc1OC [Example 12, (3R)-3-[4-Chloro-7-(cyclopropanecarbonyl-amino)-1-oxo-1,3-dihydro-isoindol-2-yl]-3-(3-ethoxy-4-methoxy-phenyl)-propionic acid] |
| 198 to 200 °C | CCOc1cc([C@@H](CS(C)(=O)=O)N2Cc3c(Cl)ccc(NC(=O)CN(C)C)c3C2=O)ccc1OC.Cl |
| 130 to 132 °C | CCOc1cc([C@@H](CC(=O)NOC(=O)C2CC2)N2Cc3cccc(NC(=O)C4CC4)c3C2=O)ccc1OC [Example 24, (1R)-Cyclopropanecarboxylic acid {2-[2-cyclopropanecarbonyloxycarbamoyl-1-(3-ethoxy-4-methoxy-phenyl)-ethyl]-3-oxo-2,3-dihydro-1H-isoindol-4-yl}-amide] |
| 219 to 221 °C | CCOc1cc([C@@H](CS(C)(=O)=O)N2Cc3c(Br)ccc(NC(=O)C4CC4)c3C2=O)ccc1OC [Example 19, (1S)-Cyclopropanecarboxylic acid {7-bromo-2-[1-(3-ethoxy-4-methoxy-phenyl)-2-methanesulfonyl-ethyl]-3-oxo-2,3-dihydro-1H-isoindol-4-yl}-amide] |
| 107 to 109 °C | CCOc1cc([C@@H](CC(=O)NOC(=O)C(C)C)N2Cc3cccc(NC(=O)C4CC4)c3C2=O)ccc1OC [Example 25, (1R)-Cyclopropanecarboxylic acid {2-[1-(3-ethoxy-4-methoxy-phenyl)-2-isobutyryloxycarbamoyl-ethyl]-3-oxo-2,3-dihydro-1H-isoindol-4-yl}-amide] |
| 107 to 109 °C | CCOc1cc(C(CC)N2Cc3cccc(NC(=O)C4CC4)c3C2=O)ccc1OC (stereo not shown) [Example 20, Cyclopropanecarboxylic acid {2-[1-(3-ethoxy-4-methoxy-phenyl)-propyl]-3-oxo-2,3-dihydro-1H-isoindol-4-yl}-amide] |
| 201 to 203 °C | CCOc1cc([C@@H](CC(N)=O)N2Cc3c(Cl)ccc(NC(=O)C4CC4)c3C2=O)ccc1OC [Example 14, (1R)-Cyclopropanecarboxylic acid {2-[2-carbamoyl-1-(3-ethoxy-4-methoxy-phenyl)-ethyl]-7-chloro-3-oxo-2,3-dihydro-1H-isoindol-4-yl}-amide] |
| 90 to 92 °C | CCOc1cc([C@@H](CC(C)(C)O)N2Cc3cccc(NC(=O)C4CC4)c3C2=O)ccc1OC [Example 23, (1R)-Cyclopropanecarboxylic acid {2-[1-(3-ethoxy-4-methoxy-phenyl)-3-hydroxy-3-methyl-butyl]-3-oxo-2,3-dihydro-1H-isoindol-4-yl}-amide] |

| SMILES | melting point |
| --- | --- |
| CCOc1cc([C@@H](CC(=O)NOC(C)=O)N2Cc3c(Cl)ccc(NC(=O)C4CC4)c3C2=O)ccc1OC [Example 17, (1R)-Cyclopropanecarboxylic acid {2-[2-acetoxycarbamoyl-1-(3-ethoxy-4-methoxy-phenyl)-ethyl]-7-chloro-3-oxo-2,3-dihydro-1H-isoindol-4-yl}-amide] | 139 to 141 °C |
| CCOc1cc([C@@H](CC(=O)NOC(C)=O)N2Cc3cccc(NC(=O)C4CC4)c3C2=O)ccc1OC [Example 10, (1R)-Cyclopropanecarboxylic acid {2-[2-acetoxycarbamoyl-1-(3-ethoxy-4-methoxy-phenyl)-ethyl]-3-oxo-2,3-dihydro-1H-isoindol-4-yl}-amide] | 140 to 142 °C |
